These results are taken from US8252843B2, “Compounds for the treatment of AIDS and other viral diseases” (Novaremed Limited, priority 2004, dated 2012).

One data set concerns PBMC cells. Put plainly: Toxicity against PBMC cells by Alamar Blue reagent. To be noted: 24 h and 48 h incubation. (In general: Alamar Blue is a resazurin reagent that responds to reducing activity.)
For data set [1], the system named is PHA-activated PBMCs. Put plainly: Example 10: [3H]-thymidine proliferation of PHA-activated PBMCs, compound diluted in DMSO. Type of data set: cell-based, human. The note with it: for inhibition relative to the controls: DMSO 0.25%; for inhibitory effect on PBMCs (summary of Examples 9 and 10): 100 and 50 μg/ml (61S), 100, 50 and 25 (74S). The procedure:
(§1) Human PBMCs were prepared from a blood bank and plated out at a concentration of 10^5 cells per well in a standard 96-well plate. PHA was added to each well at a concentration of 10 μg/ml together with AV 61S or PPG-7 (both in PBS) at concentrations of 50 μg/ml, 1 μg/ml, 100 ng/ml, 1 ng/ml and 100 pg/ml respectively for AV 61S and 50 μg/ml, 1 μg/ml and 10 ng/ml for PPG-7. The cells were then incubated for 7 days. [3H]-thymidine (NET-027 Thymidine [methyl-3H] from NEN 6.7 Ci/mmol Batch 3106446) was added to each well 48 hours after plating at a concentration of 1 mCi/well; a second dose was added to each well 18 hours before the end of the experiment. The cells were then harvested and counted for 1 min./sample.
Example 9 was repeated using separately compounds AV 61S, AV 61R and AV 74S and AV 74R. In each case the test compound was diluted in DMSO to a final concentration of 0.25%. A single dose of [3H]-thymidine (NET-027 Thymidine [methyl-3H] from NEN 6.7 Ci/mmol Batch 3106446) was added to each well 18 hours before the end of the experiment.

The subject of data set [2] is PHA-activated PBMCs. Put plainly: Example 9: [3H]-thymidine proliferation of PHA-activated PBMCs, compound in PBS. It counts as cell-based, human. The note with it: 50 μg/ml, 7 days, PHA 10 μg/ml. As to the method: as §1
The controls were medium alone and CsA (1 mg in 1 ml ethanol).

Protocol for PBMC cells: Human PBMC cells were obtained from a blood bank and plated out on a standard 96-well plate at a concentration of 10^5 cells/well. PHA (10 μg/ml) and AV 61S (or AV 74S) at different dilutions in DMSO of 100 μg/ml, 50 μg/ml, 25 μg/ml, 10 μg/ml and 1 μg/ml were added simultaneously to each well. The cells were incubated for 24 hours.
After 24 hours, Alamar Blue reagent was added up to 10% of the total well volume.
The controls were medium only and CsA (1 mg/1 ml EtOH).
The contents of each well were then assayed 1 hour, 3 hours and 6 hours after addition of Alamar Blue by fluorescence in the manner known to those skilled in the art to determine the viability of the PBMCs.

With “(S) 2-N (3-O-(polypropyleneglycol)-1-propyl-4-hydroxybenzene)-3-phenylpropylamide [AV 74S]”, the “toxicity (Alamar Blue dyeing)” value is “same activity and toxicity pattern as Cyclosporine (CsA)” with PBMC cells (100 μg/ml); “non-toxic effect” in the data set with PBMC cells (all concentrations 1-100 μg/ml except AV 74S at 100 μg/ml). The entries for the “inhibition relative to the controls” value in the data set with PHA-activated PBMCs [1] (50 μg/ml) and in the data set on PHA-activated PBMCs [1] (100 μg/ml) were 81% and 100%, respectively. Further, the “inhibitory effect on PBMCs (summary of Examples 9 and 10)” value in the data set with PHA-activated PBMCs [1] is on record as “inhibitory effect”.
Regarding “(S) 2-N (3-O-polypropyleneglycol)propylbenzene)-3-(4-hydroxyphenyl)propylamide [AV 61S]”, the “inhibition relative to the controls” value is recorded as 60% with PHA-activated PBMCs [2], “about 49%” with PHA-activated PBMCs [1] (50 μg/ml) and “about 97%” with PHA-activated PBMCs [1] (100 μg/ml). Further, the “inhibitory effect on PBMCs (summary of Examples 9 and 10)” value in the data set on PHA-activated PBMCs [1] is “inhibitory effect”.
